Source: patent US8993595B2, “Macrocyclic serine protease inhibitors” (priority 2009, dated 2015)
Like-named read-outs stand apart in the source and are kept apart here.

Legend:
[1] = target: T1, HCV NS3-4A Protease Genotype 1a (Hepatitis C virus genotype 1a, UniProt P27958); assay: HCV protease assay, recombinant NS3-4A genotype 1a; type: biochemical; settings: mean ± SD, 3 experiments
T1 construct: recombinant HCV NS3-4A proteases
Experimental: The compounds were tested at a variety of concentrations in assay buffer containing a final DMSO concentration of 5%. Reactions were allowed to proceed for 60 min at room temperature and fluorescence measurements were recorded with a Tecan Infinity Spectrofluorimeter. The IC50 values were determined from the percent inhibition versus concentration data using a sigmoidal non-linear regression analysis based on four parameters with Tecan Magellan software.
Compound 52 was tested against genotypes 1a, 1b, 2a, 3a, and 4a of recombinant HCV NS3-4A proteases, along with other cellular proteases.

NS3-4A (Con1) = NS3-4A (Con1) (Hepatitis C virus genotype 1b, UniProt Q9WMX2); assay: Binding kinetics by surface plasmon resonance; design: species or system HCV
Experimental: The binding kinetics of compound 52 to NS3-4A (Con1) was also determined using surface plasmon resonance.

[2] = Cytotoxicity in parallel, colorimetric proliferation assay, 1b replicon cells; type: cell-based; settings: human, replicon cells (genotype 1b)
[3] = Cytotoxicity in parallel, colorimetric proliferation assay, 1a replicon cells; type: cell-based; settings: human, replicon cells (genotype 1a)
[4] = system: B-1a cell line (genotype 1a replicon selected with 10 nM, D168A); assay: Extent of resistance after selection, B-1a; type: cell-based, HCV; settings: selecting conc. 10 nM
Experimental: (§1) Replicon cells (genotype 1a or 1b) were treated with various concentrations of compound 52 in the presence of G418. Treatment-emergent genotypic changes were identified by population sequencing of NS3 (both protease and helicase regions). The activity of compound 52 and other compounds was evaluated by NS5A western blot after selection or luciferase assay during and after selection.

[5] = system: D-1a cell line (genotype 1a replicon selected with 25 nM, D168A); assay: Extent of resistance after selection, D-1a; type: cell-based, HCV; settings: selecting conc. 25 nM
Experimental: as §1

[6] = system: genotype 1b luciferase-replicon NS3 A156S
Experimental: (§2) The activity of compound 52 was evaluated against replicons bearing single protease inhibitor-resistance mutations as compared to its activity against the wild-type replicon. Mutations were introduced into a genotype 1b luciferase-replicon by site-directed mutagenesis. Compound activity was measured in cells transiently transfected with in vitro transcribed wild-type or mutant luciferase-replicon RNA by luciferase assay after 4-day treatment. Replication capacity was determined in untreated transfected cells by comparing the luciferase activity at 4 hrs and 4 days post-transfection.

[7] = system: genotype 1b luciferase-replicon NS3 A156T
Experimental: as §2

[8] = system: genotype 1b luciferase-replicon NS3 D168A
Experimental: as §2

[9] = system: genotype 1b luciferase-replicon NS3 D168E
Experimental: as §2

[10] = system: genotype 1b luciferase-replicon NS3 D168V
Experimental: as §2

[11] = system: genotype 1b luciferase-replicon NS3 D168Y
Experimental: as §2

[12] = system: genotype 1b luciferase-replicon NS3 Q80R
Experimental: as §2

[13] = system: genotype 1b luciferase-replicon NS3 R155K
Experimental: as §2

[14] = system: genotype 1b luciferase-replicon NS3 R155Q
Experimental: as §2

[15] = system: genotype 1b luciferase-replicon NS3 T54A
Experimental: as §2

in vivo = settings: for Mean concentration, Heart / Mean concentration, Liver / Mean concentration, Plasma / Kp: single 2 mg/kg oral dose; for AUC(0-inf) / C24 h / F / AUC(0-t) / Vd / clearance / half-life / Cmax / Tmax / Kp: 2 mg/kg
Experimental: Male mice (3/time point) and monkeys (3/dose group) were given a single IV or PO dose of compound 52 in a PEG-based vehicle. The compound was quantified in liver (LLOQ=25 ng/g) and heart (LLOQ=50 ng/g) tissue (mice only) and in plasma samples (LLOQ=5 ng/mL) after liquid-liquid extraction by HPLC-MS/MS. Six healthy volunteers were given a single 200 mg dose of the compound using the selected tablet formulation and plasma concentrations were similarly determined (LLOQ=2 ng/mL). PK parameters were calculated using WinNonlin.

[16] = system: S. typhimurium and E. coli; assay: Bacterial mutation test; type: cell-based; settings: up to 5,000 μg/plate, with and without S9
Experimental: The potential for compound 52 to induce mutations in a bacterial system (S. typhimurium and E. coli—at concentrations up to 5,000 μg/plate), to induce chromosomal aberrations in cultures of human peripheral blood lymphocytes (at concentrations up to 84 μg/mL), and to induce clastogenic and/or aneugenic activity in CD-1 mice (at oral doses up to 2,000 mg/kg) was evaluated. The two in vitro studies were performed with and without the addition of a mammalian metabolic activation system (rat liver S9 subcellular fraction).

[17] = human, in vivo
[18] = 400 mg per day
[19] = monkey plasma

## COc1ccc2c(O[C@H]3CCN4C(=O)N(C)CCCC/C=C\[C@@H]5C[C@@]5(C(=O)NS(=O)(=O)C5(C)CC5)NC(=O)[C@@H]4C3)cc(-c3nc(C(F)(F)F)cs3)nc2c1C [Compound 52, 1-methyl-cyclopropanesulfonic acid{(Z)-(1S,4R,6S,18S)-18-[7-methoxy-8-methyl-2-(4-trifluoromethyl-thiazol-2-yl)-quinolin-4-yloxy]-13-methyl-2,14-dioxo-3,13,15-triaza-tricyclo[13.4.0.0*4,6*]nonadec-7-ene-4-carbonyl}amide]
[1]
  IC50: 1.1 ± 0.1 nM
NS3-4A (Con1); read-out: association rate
  kon: 27000 M⁻¹ s⁻¹
NS3-4A (Con1); read-out: dissociation rate
  koff: 2.1e-05 s⁻¹
NS3-4A (Con1); read-out: equilibrium constant
  Kd: 0.8 nM
[2]
  CC50 at 5 days: 25200 ± 5300 nM
[3]
  CC50 at 5 days: > 77000 nM
[4]
  Fold-Change: >3690
[5]
  Fold-Change: >2750
[6]
  Fold-Change: 0.5 ± 0.1
[7]
  Fold-Change: 27.1 ± 9.5
[8]
  Fold-Change: 575 ± 210
[9]
  Fold-Change: 41.4 ± 17.8
[10]
  Fold-Change: 4587 ± 1003
[11]
  Fold-Change: 1107 ± 513
[12]
  Fold-Change: 5.7 ± 0.9
[13]
  Fold-Change: 9.0 ± 1.7
[14]
  Fold-Change: 0.6 ± 0.09
[15]
  Fold-Change: 1.4 ± 0.2
In vivo; 2 hr
  Mean concentration, Heart: 144 ng/g
  Mean concentration, Liver: 4410 ng/g
  Mean concentration, Plasma: 174 ng/mL
In vivo; 6 hr
  Mean concentration, Heart: 93.0 ng/g
  Mean concentration, Liver: 3540 ng/g
  Mean concentration, Plasma: 121 ng/mL
In vivo; 24 hr
  Mean concentration, Liver: 57.6 ng/g
  Mean concentration, Plasma: 1.45 ng/mL
In vivo; 24 hr, BLQ = below 50 ng/g
  Mean concentration, Heart: BLQ^2
In vivo; cynomolgus monkey, po
  AUC(0-inf): 8920 ± 2190 ng·h/mL
  C24 h: 81 ± 47 ng/mL
  F: 107 ± 40%
In vivo; male, CD-1, mouse, in vivo, iv
  AUC(0-t): 4060 ng·h/mL
  C24 h: 7.9 ± 11 ng/mL
  Vd: 4.4 L/kg
  clearance: 8 mL/min/kg
  half-life: 6.3 h
In vivo; male, CD-1, mouse, in vivo, po
  AUC(0-t): 1410 ng·h/mL
  C24 h: 1.5 ± 0.3 ng/mL
  Cmax: 174 ng/mL
  F: 34.7%
  Tmax: 2 h
In vivo; male, CD-1, mouse, in vivo, po, Mean concentration ratio Heart/Plasma, 2 hr
  Kp: 0.79
In vivo; male, CD-1, mouse, in vivo, po, Mean concentration ratio Heart/Plasma, 6 hr
  Kp: 0.78
In vivo; male, CD-1, mouse, in vivo, po, Mean concentration ratio Liver/Plasma, 2 hr
  Kp: 27
In vivo; male, CD-1, mouse, in vivo, po, Mean concentration ratio Liver/Plasma, 6 hr
  Kp: 30
In vivo; male, CD-1, mouse, in vivo, po, Mean concentration ratio Liver/Plasma, 24 hr
  Kp: 39
In vivo; male, cynomolgus monkey, iv
  AUC(0-inf): 9580 ± 1420 ng·h/mL
  C24 h: 66 ± 26 ng/mL
  Vd: 3.5 ± 0.5 L/kg
  clearance: 3.83 mL/min/kg
  half-life: 10.3 ± 1 h
In vivo; male, cynomolgus monkey, po
  Cmax: 1030 ± 270 ng/mL
  Tmax: 1 h
  half-life: 7.6 ± 2 h
In vivo; mouse
  clearance relative to hepatic blood flow: −9 % of hepatic blood flow
[16]
  genotoxicity, bacterial mutation test: no genotoxicity
[17]
  C24 hr: 8 ± 5 ng/mL
[18]; PK Day 1
  C24 hr: 117 ± 53 ng/mL
[18]; PK Day 2
  C24 hr: 165 ± 87 ng/mL
[18]; PK Day 3
  C24 hr: 197 ± 112 ng/mL
[19]
  protein bound in plasma: 99.9%
